Measurements: patent EP4786468A1, “CRYSTALLINE FORM OF HDAC6 INHIBITOR AND PREPARATION METHOD THEREFOR” (Suzhou Genhouse Bio Co., Ltd., priority 2023, dated 2025)
≈ marks a conversion by molar mass, not a printed value.

What was measured:
[1] = Mouse brain-to-plasma drug concentration ratio; assay type: in vivo, mice
Description: The actual body weight of the mice was measured on the day of dosing and the dose volume was calculated. Each group consisted of 9 mice. The compound was administered as a single intravenous (IV) injection or a single oral gavage (PO). Whole blood samples were collected via orbital bleeding at specified time points. After blood collection, samples were immediately transferred to labeled commercial tubes containing K2-EDTA (0.85-1.15 mg), then centrifuged (3200 x g, 4°C, 10 minutes) to obtain plasma. The plasma was transferred to pre-cooled centrifuge tubes, flash-frozen on dry ice, and stored in an ultra-low temperature freezer at -60°C or lower until LC-MS/MS analysis. 20 µL of plasma sample or brain tissue homogenate was added to 80 µL of internal standard solution (50 ng/mL propafenone in acetonitrile). The plate was sealed at 165 °C using a plate sealer, vortexed for 10 min on a microplate shaker (maximum speed), and centrifuged at 4000 rpm for 20 min using a low-speed benchtop centrifuge. 10 µL of the supernatant was transferred and mixed with 90 µL of acetonitrile. After vortex mixing, the plate was sealed at 165 °C, vortexed again, and 1 µL of the supernatant was taken for LC-MS/MS analysis. The plasma concentration data of the compound were processed using a non-compartmental model with WinNonlin Version 6.3 (Pharsight, Mountain View, CA) pharmacokinetic software. Relevant pharmacokinetic parameters were calculated using the linear log trapezoidal method.

[2] = Phase I metabolic stability in liver microsomes; assay type: in vitro ADME, beagle dogs; settings: DLM
Description: (§1) Evaluation of the Phase I metabolic stability of the test compound in liver microsomes from CD-1 mice (MLM), Sprague-Dawley rats (RLM), beagle dogs (DLM), cynomolgus monkeys (CLM), and humans (HLM).
(§2) The animal and human liver microsomes used in this test system were purchased from Xenotech, Corning, or other qualified suppliers and stored in a freezer below -60°C before use.
(§3) The test and control compounds were incubated with animal and human liver microsomes at 37±1°C for a certain period, with a maximum incubation time of 60 minutes. Samples were taken at specified time points, and the reaction was terminated with acetonitrile or other organic solvents containing an internal standard. After centrifugation, the resulting supernatant was analyzed using liquid chromatography-tandem mass spectrometry (LC-MS/MS).
(§4) 73.21 g of dipotassium hydrogen phosphate trihydrate and 10.78 g of potassium dihydrogen phosphate were dissolved in 4000 mL of ultrapure water. The pH of the solution was adjusted to 7.40±0.10 using 10% phosphoric acid or 1 M potassium hydroxide, with a final concentration of 100 mM. […]
(§5) Sample analysis was performed using liquid chromatography-tandem mass spectrometry (LC-MS/MS), without calibration curves and quality control samples. Semi-quantitative determination was performed using the ratio of the analyte peak area to the internal standard peak area. […]

HDAC1 = target: T1, HDAC1 (Homo sapiens, UniProt Q13547); experiment: HDAC subtype enzyme activity assay; assay type: biochemical; settings: read-out: HDAC1 Inhibition Rate/%
T1 construct: purchased BPS
T1 sequence (Q13547 whole entry, species assumed): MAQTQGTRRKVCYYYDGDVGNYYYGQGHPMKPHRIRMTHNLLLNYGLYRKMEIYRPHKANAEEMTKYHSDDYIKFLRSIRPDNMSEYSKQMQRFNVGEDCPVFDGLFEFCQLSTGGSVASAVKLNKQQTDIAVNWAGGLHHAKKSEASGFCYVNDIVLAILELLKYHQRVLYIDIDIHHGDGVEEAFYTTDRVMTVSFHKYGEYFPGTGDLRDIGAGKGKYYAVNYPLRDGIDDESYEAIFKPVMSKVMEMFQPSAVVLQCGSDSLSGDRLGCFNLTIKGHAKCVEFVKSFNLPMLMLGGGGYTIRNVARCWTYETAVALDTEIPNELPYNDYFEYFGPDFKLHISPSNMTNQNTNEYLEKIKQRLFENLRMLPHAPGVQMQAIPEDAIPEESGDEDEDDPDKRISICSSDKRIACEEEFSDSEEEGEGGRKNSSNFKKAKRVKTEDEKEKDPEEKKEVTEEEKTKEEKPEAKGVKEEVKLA
Description: (§7) The IC50 was obtained by fitting with GraphPad Prism 7.0 software.

[3] = Phase I metabolic stability in liver microsomes; assay type: in vitro ADME, cynomolgus monkeys; settings: CLM
Description: as §1, §2, §3, §4, §5

[4] = Phase I metabolic stability in liver microsomes; assay type: in vitro ADME, humans; settings: HLM
Description: as §1, §2, §3, §4, §5

[5] = Phase I metabolic stability in liver microsomes; assay type: in vitro ADME, CD-1 mice; settings: MLM
Description: as §1, §2, §3, §4, §5

HDAC6 = target: T2, HDAC6 (Homo sapiens, UniProt Q9UBN7); experiment: HDAC6 enzyme activity assay (fluorogenic substrate Ac-GAK(Ac)-AMC); assay type: biochemical; settings: HDAC6 (Abcam), 20 µM substrate, 37°C 30 min
T2 construct: purchased Abcam
T2 sequence (Q9UBN7 1-1215): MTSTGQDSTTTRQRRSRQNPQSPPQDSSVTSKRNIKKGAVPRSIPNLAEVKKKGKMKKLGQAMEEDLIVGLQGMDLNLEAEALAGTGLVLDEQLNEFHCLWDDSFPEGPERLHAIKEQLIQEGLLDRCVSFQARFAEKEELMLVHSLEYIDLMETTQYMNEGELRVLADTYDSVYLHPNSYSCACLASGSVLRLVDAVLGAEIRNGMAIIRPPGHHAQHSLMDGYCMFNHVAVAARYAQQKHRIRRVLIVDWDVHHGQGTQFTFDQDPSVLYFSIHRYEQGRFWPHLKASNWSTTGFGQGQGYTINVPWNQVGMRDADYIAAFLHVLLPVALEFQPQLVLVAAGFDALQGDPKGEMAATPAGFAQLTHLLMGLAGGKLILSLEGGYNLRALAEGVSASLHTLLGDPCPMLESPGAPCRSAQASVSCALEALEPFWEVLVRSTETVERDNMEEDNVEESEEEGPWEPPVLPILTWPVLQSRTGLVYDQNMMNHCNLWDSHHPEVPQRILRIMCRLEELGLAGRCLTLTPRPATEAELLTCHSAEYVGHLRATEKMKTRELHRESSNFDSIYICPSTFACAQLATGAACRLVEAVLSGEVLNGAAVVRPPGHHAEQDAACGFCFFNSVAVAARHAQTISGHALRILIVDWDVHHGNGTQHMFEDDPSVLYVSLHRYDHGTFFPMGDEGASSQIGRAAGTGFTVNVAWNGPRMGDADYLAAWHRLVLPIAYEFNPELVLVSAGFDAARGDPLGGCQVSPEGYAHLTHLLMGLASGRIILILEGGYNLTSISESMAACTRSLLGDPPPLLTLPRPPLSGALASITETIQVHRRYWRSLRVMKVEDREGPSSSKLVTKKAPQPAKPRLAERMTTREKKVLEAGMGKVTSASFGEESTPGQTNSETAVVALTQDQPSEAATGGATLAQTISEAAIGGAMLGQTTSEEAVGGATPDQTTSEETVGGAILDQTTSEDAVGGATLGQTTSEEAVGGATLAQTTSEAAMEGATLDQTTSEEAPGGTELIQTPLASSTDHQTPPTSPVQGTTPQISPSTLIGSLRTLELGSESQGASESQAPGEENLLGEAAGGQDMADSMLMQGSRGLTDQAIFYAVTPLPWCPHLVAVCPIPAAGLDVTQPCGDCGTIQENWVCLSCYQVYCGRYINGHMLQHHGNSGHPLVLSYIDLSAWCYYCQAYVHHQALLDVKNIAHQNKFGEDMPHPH
Description: as §7

[6] = Mouse pharmacokinetic test (IV and PO); assay type: in vivo; settings: BALB/c mice
Description: This experimental example tested the pharmacokinetic behavior of the compound in BALB/c mice after intravenous (IV) and oral (PO) administration.
The actual body weight of the mice was measured on the day of dosing and the dose volume was calculated. Each group consisted of 3 mice. The compound was tested in two groups: one group received a single intravenous injection, and the other group received a single oral gavage. Whole blood samples were collected via orbital bleeding at specified time points (0.25, 0.5, 1, 2, 4, 8, 24h post-dose). After blood collection, samples were immediately transferred to labeled commercial tubes containing K2-EDTA (0.85-1.15 mg), then centrifuged (3200 x g, 4°C, 10 minutes) to obtain plasma. The plasma was transferred to pre-cooled centrifuge tubes, flash-frozen on dry ice, and stored in an ultra-low temperature freezer at -60°C or lower until LC-MS/MS analysis.
Plasma concentrations were determined using an LC-MS/MS method. […] Relevant pharmacokinetic parameters were calculated using the linear log trapezoidal method. Table 9: Mouse Pharmacokinetic Test Experimental Data

[7] = Phase I metabolic stability in liver microsomes; assay type: in vitro ADME, Sprague-Dawley rats; settings: RLM
Description: as §1, §2, §3, §4, §5

[8] = Dynamic solubility in biorelevant media (HPLC); assay type: physicochemical; settings: 37°C
Description: FaSSGF (Fasted State Simulated Gastric Fluid), FeSSGF (Fed State Simulated Gastric Fluid), FaSSIF (Fasted State Simulated Intestinal Fluid), and FeSSIF (Fed State Simulated Intestinal Fluid) are biorelevant media. These media better reflect the impact of the gastrointestinal physiological environment on drug release. Solubility tested in these media is closer to solubility in the human body environment.
(§6) The vial was stirred and observed in a 37°C water bath. If the sample dissolved completely, more sample was added until undissolved material remained after rotary mixing. The sample vial was sealed and stirred in a 37°C water bath for 24h, then centrifuged. The supernatant was filtered and the solubility was measured by HPLC. Table 13: Dynamic Solubility of Crystal Forms in Biorelevant Media

[9] = Solubility in water (HPLC); assay type: physicochemical; settings: H2O, 37°C
Description: as §6, with “HPLC.” for “HPLC. Table 13: Dynamic Solubility of Crystal Forms in Biorelevant Media”

[10] = Stability of the crystal form under accelerated conditions (XRPD, HPLC); assay type: physicochemical; settings: for % Area: chemical stability
Description: Solid samples separated under different conditions were evaluated for physical stability via XRPD testing for crystalline form and for chemical stability via HPLC testing for purity.
Appropriate amounts of crystal form I samples were taken and subjected to a stability experiment under accelerated conditions of 40 °C/75%RH/open/1 month. Physical stability was evaluated by XRPD testing. Table 14: Stability of crystal form I

[11] = 60 min, buffer instead of NADPH regeneration system
[12] = 60 min with NADPH regeneration system

Question: What does the source list for `O=C(N[C@@H]1CCCC[C@H]1N1Cc2ccc(-c3nnc(C(F)F)o3)cc2S1(=O)=O)C(F)F` [I]?
Answer: Brain Drug Concentration ([1]; 2 mg/kg IV, 1 h): 268 ng/mL; Plasma Drug Concentration ([1]; 2 mg/kg IV, 1 h): 1090 ng/mL; Brain Drug Concentration ([1]; 2 mg/kg IV, 4 h): 149 ng/mL; Plasma Drug Concentration ([1]; 2 mg/kg IV, 4 h): 595 ng/mL; Brain Drug Concentration ([1]; 10mg/kg PO, 1 h): 882 ng/mL; Plasma Drug Concentration ([1]; 10mg/kg PO, 1 h): 4993 ng/mL; Brain Drug Concentration ([1]; 10mg/kg PO, 4 h): 435 ng/mL; Plasma Drug Concentration ([1]; 10mg/kg PO, 4 h): 2833 ng/mL; Remaining Rate (NCF=60 min) [2, 11]: 90.9%; Remaining Rate (T=60 min) [2, 12]: 85.8%; inhibition at 1 µM (HDAC1): -11.9%; inhibition at 10 µM (HDAC1): -3.91%; Remaining Rate (NCF=60 min) [3, 11]: 101.5%; Remaining Rate (T=60 min) [3, 12]: 88.8%; Remaining Rate (NCF=60 min) [4, 11]: 97.3%; Remaining Rate (T=60 min) [4, 12]: 86.1%; Remaining Rate (NCF=60 min) [5, 11]: 99.8%; Remaining Rate (T=60 min) [5, 12]: 84.8%; IC50 (HDAC6): 5.7 nM; CLz ([6]; IV@2mg/kg): 6 mL/min/kg; t1/2z ([6]; IV@2mg/kg): 60.6 min; F ([6]; PO@10mg/kg): 123.92%; t1/2z ([6]; PO@10mg/kg): 97.2 min; F ([6]; PO@30mg/kg): 96.93%; t1/2z ([6]; PO@30mg/kg): 52.2 min; F ([6]; PO@100mg/kg): 95.71%; t1/2z ([6]; PO@100mg/kg): 48.6 min; Remaining Rate (NCF=60 min) [7, 11]: 93.0%; Remaining Rate (T=60 min) [7, 12]: 76.4%

Question: For `O=C(N[C@@H]1CCCC[C@H]1N1Cc2ccc(-c3nnc(C(F)F)o3)cc2S1(=O)=O)C(F)F` [Crystal Form I], which solubility at 1 h ([8]; FaSSGF) is on record?
Answer: The solubility at 1 h was 34.5 µg/mL (≈ 74.6 µM).

Question: What about the solubility at 24 h ([8]; FaSSGF) of the same molecule?
Answer: The solubility at 24 h was 51.9 µg/mL (≈ 112 µM).

Question: And the solubility at 24 h ([8]; FaSSIF)?
Answer: The solubility at 24 h was 96.2 µg/mL (≈ 208 µM).

Question: What about the solubility at 1 h ([8]; FeSSGF) of the same molecule?
Answer: The solubility at 1 h was 45.5 µg/mL (≈ 98.4 µM).

Question: What about the solubility at 24 h ([8]; FeSSGF) of the same molecule?
Answer: Its solubility at 24 h is 55 µg/mL (≈ 119 µM).

Question: And the solubility at 24 h ([8]; FeSSIF)?
Answer: The solubility at 24 h was 87.5 µg/mL (≈ 189 µM).

Question: What about the solubility at 24 h [9] of the same molecule?
Answer: The solubility at 24 h was 49.8 µg/mL (≈ 108 µM).

Question: What about the “XRPD characteristic peaks (physical stability)” value ([10]; 40 °C/75%RH/open/1 month) of the same molecule?
Answer: The value was “remained unchanged”.

Question: What about the “% Area” value ([10]; 40 °C/75%RH/open/1 month, HPLC peak of Compound of formula (I)) of the same molecule?
Answer: Its value is 99.51 % Area.

Question: And the “% Area” value ([10]; T0, HPLC peak of Compound of formula (I))?
Answer: Its value is 99.51 % Area.
